Experimental data reported in patent US20200230205A1, “COMPOSITIONS AND METHODS FOR TREATING MYELIN DISORDERS” (CASE WESTERN RESERVE UNIVERSITY, priority 2017, published 2020).

What was measured:
[1] = system: oligodendrocyte progenitor cells (OPCs); test: Ki-67 proliferation and TUNEL apoptosis of OPCs on aggrecan/laminin; assay type: cell-based, mouse
Protocol: To assess proliferation, OPCs were plated on 24-well coverslips that were precoated with PLL, 1 μg/mL laminin, and 2 μg/mL aggrecan. OPCs were treated with vehicle, 2.5 μM ISP or SISP immediately upon plating for 2 days at 37° C. Coverslips were fixed and stained using the same method described in the immunocytochemistry section with Ki-67 (550609, BD Pharmingen, 1:500) and O4 (1:10). Coverslips were imaged and counted. To assess apoptosis, OPCs were cultured in the same fashion and incubated with vehicle or 1 μg/mL LPC for 2 hours at 2 days following vehicle, 2.5 μM ISP or SISP incubation. Coverslips were then fixed with PFA and methanol then stained using APO-BrdU TUNEL assay kit (A23210, ThermoFisher) and guidelines with an O/N incubation of the primary antibody at RT. Coverslips were additionally costained with DAPI (D9542, Sigma, 1:10,000) then imaged and counted.

LPC-demyelinated mice = test: Lysolecithin (LPC)-induced focal demyelination of the spinal cord in mice; assay type: in vivo, mouse
Protocol: 12-week-old C57BL/6 male mice were anaesthetized using isoflurane and a laminectomy was performed. […] of 1% LPC was infused into the dorsal column between T11 and T12 spinal cord at a rate of 0.25 μl/min. The needle was removed after a delay of 5 min to minimize back flow and the lesion closed. […] The mice were euthanized at day 7, 14 and 21 after the laminectomy separately. Spinal cords were dissected for further western blot, histology and ultrastructural analysis. Control animals received an equivalent injection of saline, and tissues were collected according to the same paradigm. […] Lesion sizes were determined by staining of serial sections with eriochrome cyanine staining.
For spinal cord sections, 20 μm coronal sections were incubated in LFB solution in 56° C. overnight and then rinsed sequentially with 95% alcohol and distilled water. The sections were then in 0.1% lithium carbonate solution and followed dehydration with a series of gradated ethanol, cleared with Histoclear and mounted. A set of serial matched sections were imaged and analyzed. Images (5 to 6 sections/animal) were captured under light microscope. The demyelinated areas (lack of LFB staining) were quantified using ImageJ software. For EAE sections, demyelinated areas were measured and represented as a percentage of total area of spinal cord. For sections of LPC model, lesion volumes were calculated by the lesion area from serial sections throughout the entire lesion based on the equation for volume of cylinder (V=lesion area×length of lesion).
Mice were anesthetized with avertin and perfusion with PBS and 4% paraformaldehyde (PFA). Brain or spinal cord were dissected and post-fixed in 4% PFA overnight at 4° C. and equilibrated in 20% sucrose. 20 μm-thick sections were pretreated with Reveal Decloaker Solution (RV 1000M, Biocare Medical) for antigen retrieval according to the manufacturer's instructions. […] For each staining, at least 3 individual animals/group were examined and images were captured with a Leica DFC500 fluorescence microscope. Staining was quantified using Image J software (US National Instisutes of Health, USA). Fluorescence intensity was calculated as percentages of the mean value of the naïve controls.
For ultrastructural analyses of myelination, anesthetized animals were perfused with 2% glutaraldehyde/4% paraformaldehyde in 0.1 M sodium carcodylate buffer, PH7.4 (Electron Microscopy Sciences). Lesioned areas of the LPC or EAE-induced spinal cords from ISP-treated or control animals were dissected and post-fixed in 1% OsO4 for 2 hrs. Coronal sections ([…]) of spinal cord or brain containing corpus callosum were prepared (Leica, Vibratome), dehydrated, stained with saturated uranyl acetate and embedded in a Poly/Bed812 resin (Polysciences Inc.). The 1 μm-thick sections were cut and stained with toluidine blue, and matched areas were selected for EM analysis. For ultrastructure analysis, ultrathin sections (0.1 μm) were cut and visualized using an electron microscope (JEOL100CX) at 80 kV. G-ratios were calculated from at least 50-100 randomly selected myelinated axons by measuring the myelin thickness of the inner and outer diameter of the myelin sheath.

[2] = system: oligodendrocyte progenitor cells (OPCs); test: CSPG gradient crossing (spot) assay, OPC migration; assay type: cell-based, mouse
Protocol: CSPG gradients were prepared as described previously (Tom, V. J., et al. Studies on the Development and Behavior of the Dystrophic Growth Cone, the Hallmark of Regeneration Failure, in an In vitro Model of the Glial Scar and after Spinal Cord Injury.). 24-well glass coverslip were coated with poly-L-lysine and nitrocellulose, and a mixture of 700 μg/mL aggrecan (A1960 Sigma) and 10 μg/mL laminin (11243217001 Sigma) spotted on the coated coverslip. After drying, coated coverslips were then incubated with laminin at 37° C. for 3h. Purified OPCs were plated at a density of 10,000/coverslip and cultured in DMEM/F12 medium containing with N2, PDGF (20 ng/ml), FGF (20 ng/ml), NT-3 (5 ng/ml), CNTF (O1 ng/ml), Glutamine (200 mM). Coverslips were stained with CS-56 (C8035, Sigma, 1:500) and O4 antibodies (Hybridoma Core Cleveland Clinic, 1:10). O4-positive cells crossing the aggrecan border were counted for each spot. For CSPG gradient quantification, 1×10^6 OPCs were plated per well on PLL, 1 μg/mL laminin, and 2 μg/mL aggrecan coated 6-well plates. OPCs treated with vehicle, 2.5 μM ISP, or 2.5 μM SISP for 2 days at 37° C. CM was harvested and incubated with freshly made spots. Spots were incubated with CM for 2 days at 37° C. then stained with CS-56 and laminin (L9393, Sigma, 1:1000) antibodies and consistently imaged. Using ImageJ software (NIH), pixel intensities of the CS-56 or laminin spot rims were quantified using the same ROI. For cultured spinal cord explant, the spinal cords of cervical and thoracic of P1 mouse pups were chopped into 1-2 mm tissue pieces and transferred to the coverslip. Explants were cultured in DMEM/F12 medium with 15% FBS (Hyclone), O1 ng/ml PDGF (Sigma) and N2 supplement (Invitrogen). For ISP treatment, 2.5 uM ISP was added to the media at the time of plating. 25 μM GM6001 (2983, Tocris), 100 nM MMP-2 inhibitor (444244, Calbiochem), and/or 2.5 μM ISP or SISP was used.

[3] = 14 dpl, given together with ISP, vs LPC+ISP
[4] = 7 dpl, lesion epicenter, ISP started immediately

Q: Which results are given for `CCCCCCCC/C=C\CCCCCCCC(=O)NO` [OA-Hy, reference compound]?
A: apoptosis (TUNEL) following LPC treatment ([1]; 100 nM OA-Hy with ISP, LPC 1 μg/mL 2 hours, vs LPC-ISP): increased apoptosis; TUNEL+ cells/total cells ([1]; 100 nM OA-Hy, 2 days in vitro, no LPC): did not significantly increase; CS56 immunoreactivity (LPC-demyelinated mice; [3]): concomitant increase in CS56 immunoreactivity; Olig2+ OPCs in the lesion epicenter (LPC-demyelinated mice; [3]): decreased accumulation; lesion volume, eriochrome cyanine myelin staining (LPC-demyelinated mice; 18 dpl, MMP-2 inhibition without ISP, vs vehicle control): increased the lesion volume; effect on ISP-enhanced remyelination (lesion volume) (LPC-demyelinated mice; 18 dpl, given together with ISP): attenuated the enhanced remyelinating effects of ISP; OPC entry into the CSPG-rich area ([2]; 25 μM GM6001 or 100 nM OA-Hy, even in the presence of ISP): effectively halted OPC entry

Q: Which results are given for “GRKKRRQRRRCDMAEHMERLKANDSLKLSQEYESI [ISP]”?
A: OPC proliferation (Ki67) ([1]; 2.5 μM peptide, 2 div, laminin 1 and aggrecan 2 μg/mL, vs control): no significant differences; OPC death (TUNEL) after LPC challenge ([1]; LPC 1 μg/mL, 2 hours, 2.5 μM ISP): decreased OPC death; percentage of apoptotic cells (TUNEL) ([1]; OPCs on low laminin and aggrecan, 2.5 μM ISP): decreased the percentage of apoptotic cells; Olig2+/Ki67+ cells (LPC-demyelinated mice; 7 dpl vs vehicle): no differences; percentage of Olig2+ OPCs in lesions (LPC-demyelinated mice; 7 dpl vs vehicle): significantly increased; lesion volume (LFB) (LPC-demyelinated mice; 7 dpl, ISP 20 μg/day subcutaneous from 1 day post LPC, vehicle 1.508±0.069): 1.535±0.058 mm^3; CSPG expression (CS56, Cat301) (LPC-demyelinated mice; 7 dpl, ISP started immediately upon LPC injection, 7 days): significantly reduced; MBP myelin protein expression vs control (LPC-demyelinated mice; [4]): no change; activated microglia (Iba1) vs control (LPC-demyelinated mice; [4]): no change; reactive astrocytes (GFAP) vs control (LPC-demyelinated mice; [4]): no change; MBP expression, western blot (LPC-demyelinated mice; 14 dpl): increased expression of MBP; CSPGs (CS56 and Cat301) immunostaining (LPC-demyelinated mice; 14 dpl vs controls): quicker reduction of CSPGs; lesion volume (LFB) (LPC-demyelinated mice; 14 dpl, vehicle 1.035±0.06): 0.613±0.043 mm^3; lesion volume (LFB) (LPC-demyelinated mice; 21 dpl, vehicle 0.738±0.027): 0.2±0.041 mm^3; percentage of CC1+ oligodendrocytes in lesions (LPC-demyelinated mice; LPC-injected animals, 14 dpl): significantly enhanced; MMP-2 expression in the LPC-injected site (immunohistochemistry, western blot) (LPC-demyelinated mice; spinal cord, vs LPC vehicle): markedly enhanced; O4+ OPCs crossing the CSPG barrier ([2]; purified OPCs, 2.5 μM ISP vs control): significantly induced greater O4+ OPC migration
